Assay results reported in patent US8653076B2, “Oxo-substituted imidazo[1,2B]pyridazines, their preparation and use as pharmaceuticals” (Bayer Intellectual Property GmbH, priority 2006, dated 2014).

Tests used:
[1] = test system: interleukin 2 (IL-2) secretion; assay: anti-CD3/anti-CD28 antibody-induced IL-2 secretion in human PBMC (ELISA); type: cell-based; conditions: human PBMC stimulated with anti-CD3 and anti-CD28, 20 hours
Procedure: The extent to which test substance influence antibody-induced interleukin 2 (IL-2) secretion was investigated in the following test system. IL-2 represents a central cytokine which is produced and released by activated T cells. IL-2 synthesis in the T cells is regulated by a plurality of kinases. An inhibitory effect of substances on kinases leads inter alia to inhibition of IL-2 synthesis and inhibition of the T cell immune response. The cytokine determinations were carried out using an ELISA kit.
Peripheral blood mononuclear cells (PBMC) were isolated from heparinized human whole blood by gradient centrifugation using Histopaque 1077 (Sigma) at room temperature, and the erythrocytes were lyzed hypotonically and, after washing twice in PBS, taken up in cell culture medium (10% fetal inactivated calf serum in RPMI-1640+Glutamax-I [Gibco]).
The 96 well culture plates (Costar) were previously incubated with 100 μl of antibody solution in PBS 0.1 μg/ml in PBS [Gibco]) per well at 4° C. for 18 hours. The antibodies used were anti-CD3 and anti-CD28 monoclonal antibodies (PharMingen). After washing with PBS three times, the plates were charged with 200 μl of the cell suspension (40 000 cells/well). […]
Interleukin-2 was determined using an ELISA kit (Bioscience), and the absorption of the color change was analyzed in a SpectraMax 340 PC (wavelength 450 nm). […]

protein kinase C theta = biological target: T1, protein kinase C theta (Homo sapiens, UniProt Q04759); assay: PKC-theta HTRF kinase assay; type: biochemical; conditions: recombinant PKC-theta, 10 μM ATP, read-out: Inhibition of PKC theta IC50
T1 construct: purchased ProQinase (Freiburg)
T1 sequence (Q04759 whole entry): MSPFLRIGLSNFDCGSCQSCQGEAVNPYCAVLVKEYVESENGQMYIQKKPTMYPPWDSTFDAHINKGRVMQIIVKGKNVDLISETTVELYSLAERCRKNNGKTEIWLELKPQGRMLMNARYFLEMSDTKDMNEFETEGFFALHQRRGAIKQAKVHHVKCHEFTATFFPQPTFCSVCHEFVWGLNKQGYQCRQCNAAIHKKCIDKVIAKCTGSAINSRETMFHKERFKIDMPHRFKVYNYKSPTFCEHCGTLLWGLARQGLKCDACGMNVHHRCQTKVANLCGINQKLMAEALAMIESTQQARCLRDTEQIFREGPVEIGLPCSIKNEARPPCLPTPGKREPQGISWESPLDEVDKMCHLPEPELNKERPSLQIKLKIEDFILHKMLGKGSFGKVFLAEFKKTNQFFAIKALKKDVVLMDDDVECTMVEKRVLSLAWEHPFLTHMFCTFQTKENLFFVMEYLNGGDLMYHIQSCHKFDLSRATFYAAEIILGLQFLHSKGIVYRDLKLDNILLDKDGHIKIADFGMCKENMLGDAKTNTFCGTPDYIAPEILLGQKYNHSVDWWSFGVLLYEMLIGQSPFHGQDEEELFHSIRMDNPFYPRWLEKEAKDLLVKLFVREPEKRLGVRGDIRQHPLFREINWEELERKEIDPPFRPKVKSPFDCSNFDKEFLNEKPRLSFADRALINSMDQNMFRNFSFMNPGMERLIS
Procedure: Inhibition of the enzymic activity of the protein kinase C theta was determined with the aid of the PKC-theta HTRF assay.
Recombinant PKC-theta protein was purchased from ProQinase (Freiburg). The kinase substrate used was the biotinylated peptide having the amino acid sequence biotin-RFARKGSLRQKNVHEVK, which was purchased from Biosynthan (Berlin).
PKC-theta [0.7 nM in the assay mixture, assay volume 5 μl] was incubated at 22° C. for 15 min in the presence of various concentrations of test substances (0 μM, and 10 measurement points within the range 0.001-20 μM in duplicates) in assay buffer [50 mM Hepes/NaOH pH 7.4, 1.0 mM MnCl2, 10.0 mM MgCl2, 1.0 mM dithiothreitol, 0.1 mM sodium orthovanadate, 10 μM adenosine triphosphate (ATP), 0.5 μM substrate peptide, 0.1 mg/ml phosphatidyl serine, 0.01 mg/ml diacylglycerol, 1% (v/v) dimethyl sulfoxide]. The reaction was stopped by adding 5 μl of an EDTA/detection solution [50 mM Hepes/NaOH pH 7.4, 400 mM KF, 40 mM EDTA, 0.1% bovine serum albumin, 100 nM streptavidin-XLlent (from Cisbio, #611SAXLB), 1.8 nM anti-phospho PKC substrate crypate conjugate antibody (CisBio: #61P03KAZ)]. […]

IC50 ([1]; IL-2 ELISA, read-out: IC50 (concentration for 50% inhibition of IL-2)): 1300 nM | IC50 (protein kinase C theta): 4100 nM
Compound: Clc1cccc(-c2cnc3ccc(OCCCN4CCOCC4)nn23)c1 [Example 1, 3-(3-Chlorophenyl)-6-(3-morpholin-4-ylpropoxy)imidazo[1,2-b]pyridazine]
inhibition at 10 µM ([1]; 10 μM): > 95%
